According to US11413278B2, “Compounds and methods for promoting stress resistance” (priority 2015, dated 2022):
Like-named read-outs stand apart in the source and are kept apart here.

Tests used:
WI-38 cells [1] = settings: for No H2O2 stress treatment, at 10 uM (fold change): normalized ATP measurement; for Assay 1: H2O2-resistant: YES/NO, if NO, possibly due to repeated freezing/thawing of stocks
human PARP1 = target: T1, human PARP1 (Homo sapiens, UniProt P09874); assay: PARP inhibitor assay (HT Fluorescent Homogeneous PARP Inhibition Assay Kit); format: biochemical; settings: score
T1 construct: purchased Trevigen
T1 sequence (P09874 whole entry): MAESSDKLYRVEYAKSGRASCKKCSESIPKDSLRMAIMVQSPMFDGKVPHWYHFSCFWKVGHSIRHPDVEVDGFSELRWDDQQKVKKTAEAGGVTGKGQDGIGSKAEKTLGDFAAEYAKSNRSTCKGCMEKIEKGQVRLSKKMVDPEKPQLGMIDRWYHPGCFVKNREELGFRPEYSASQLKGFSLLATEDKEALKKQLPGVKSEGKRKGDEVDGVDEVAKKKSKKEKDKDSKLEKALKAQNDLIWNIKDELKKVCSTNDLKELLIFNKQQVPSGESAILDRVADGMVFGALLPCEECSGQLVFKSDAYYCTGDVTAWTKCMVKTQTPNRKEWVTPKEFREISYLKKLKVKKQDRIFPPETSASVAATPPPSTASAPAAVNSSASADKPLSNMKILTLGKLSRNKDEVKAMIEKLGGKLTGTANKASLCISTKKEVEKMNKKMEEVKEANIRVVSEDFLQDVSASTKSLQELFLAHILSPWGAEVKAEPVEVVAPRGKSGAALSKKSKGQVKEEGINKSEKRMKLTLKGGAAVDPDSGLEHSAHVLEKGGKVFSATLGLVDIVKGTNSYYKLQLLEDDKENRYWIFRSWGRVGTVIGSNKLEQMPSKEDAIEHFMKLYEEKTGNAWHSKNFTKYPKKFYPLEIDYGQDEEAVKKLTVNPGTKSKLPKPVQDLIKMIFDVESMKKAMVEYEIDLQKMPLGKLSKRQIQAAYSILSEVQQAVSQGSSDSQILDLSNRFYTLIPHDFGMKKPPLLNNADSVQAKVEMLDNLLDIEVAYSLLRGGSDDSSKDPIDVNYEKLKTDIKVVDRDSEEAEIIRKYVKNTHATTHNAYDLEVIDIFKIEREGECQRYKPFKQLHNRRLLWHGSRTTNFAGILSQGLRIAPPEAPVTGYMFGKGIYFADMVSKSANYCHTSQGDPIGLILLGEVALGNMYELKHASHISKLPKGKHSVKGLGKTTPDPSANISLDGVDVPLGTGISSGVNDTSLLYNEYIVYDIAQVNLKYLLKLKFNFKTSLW
Protocol: (§1) The assay was performed with the HT Fluorescent Homogeneous PARP Inhibition Assay Kit (Trevigen), following manufacturer's instructions. Briefly, nicotinamide adenine dinucleotide, human PARP1 and activated-DNA solution was added onto a 96-well plate. 54 repurchased small molecules, at 10 μM final concentration, were introduced onto the 96-well assay plate and incubated in a humid chamber at room temperature for 30 min in dark. Cycling mixture, with resazurin and cycling enzyme diaphorase, was then added and incubated further for 1 hr in dark. Reaction was terminated by adding the stopping buffer.
as §1, with “(Trevegen),” for “(Trevigen),”, “stopped” for “terminated”

C. elegans = format: in vivo, Caenorhabditis elegans; settings: in vivo
Protocol: The worms were treated with the small molecules in liquid, with H2O2 (500 μM final concentration) added on day 4 of adulthood, and scored for viability everyday
FUdR was used to block progeny production. The molecules were analyzed in 96-well plates, with 4 wells for each small molecule. Multiple control wells with DMSO (0.2% final concentration) were included. […] Day 1 adults were transferred onto mini-plates, seeded with OP50 bacteria (UV-irradiated, kanamycin-treated) and supplemented with small molecules (˜60 μM final concentration, 0.2% DMSO). Worms were scored every other day. Cumulative survival was analyzed using the STATA software (log-rank test). […] The worms were treated with the small molecules in liquid, with H2O2 (500 μM final concentration) added on day 4 of adulthood, and scored for viability every day.

WI-38 cells [2] = assay: CdCl2 (cadmium) resistance assay; format: cell-based, human; settings: for Assay 4: H2O2- & Cd-resistant / Assay 2: Cadmium-resistant: YES/NO; for Assay 2: Cadmium-resistant: * indicates partial; for fold induction at 10 µM: Homo sapiens, 12 h, normalized ATP measurement
Method in brief: (§2)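 Resistance to CdCl2 or MMS stress (12 h exposure) was scored in WI-38 fibroblasts pretreated with compound at 0.25–20 μM final, five doses, technical triplicates. MMS plates had compound added 24 h before MMS, after a shift to serum-free DMEM+2% BSA. Significance came from a global variance t-test over two independent runs.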

WI-38 cells [3] = assay: MMS resistance assay; format: cell-based, human; settings: for Assay 5: Triple resistant: H2O2, cadmium and MMS; for fold induction at 10 µM: Homo sapiens, 12 h, normalized ATP measurement
Method in brief: as §2

[4] = system: phosphorylated γH2A.X and TP53BP1; assay: DNA damage marker analysis (immuno-staining); settings: for activity at 10 µM: Homo sapiens, WI-38, 24 h
Protocol: WI-38 cells were seeded on 96-well plates and cultured for 24 hrs and then incubated with small molecules for another 24 hrs. As the positive control to damage DNA, H2O2 was supplemented at 700 μM final concentration for the last 3 hrs. Cells were washed with phosphate-buffered saline (PBS), fixed with 4% paraformaldehyde and then blocked with 5% normal goat serum (Cell Signaling), plus 0.3% Triton X-100, for 1 hr. Primary antibody cocktail (rabbit anti-phospho-histone γH2A.X (Ser-139), 1:100; anti-phospho-TP53BP1 (Ser-1778), 1:100), prepared in 1% BSA and 0.3% Triton X-100/PBS, was then introduced and incubated overnight at 4 C. Next day, samples were washed with PBS and further incubated with fluorophore-conjugated secondary antibody (1:1,000) for 1 hr in the dark. Samples were then washed and incubated with DAPI dye (Life Technologies) (4 μg/ml final concentration) for the last 10 minutes. Images were collected on an INCell Analyzer 2000 (GE) and analyzed with the Developer software.
WI-38 cells were seeded (˜8,000 cells per well) on 96-well plates and cultured for 24 hrs and then incubated with small molecules for another 24 hrs. Doxorubicin (300 nM, 24 hrs) and H2O2 (700 μM, 3 hrs) were also introduced as the positive controls to damage DNA. Cells were washed with phosphate-buffered saline (PBS), fixed with 4% paraformaldehyde for 30 min and then blocked with 5% normal goat serum (Cell Signaling) and 0.3% Triton X-100 for 1 hr. Primary antibody cocktail (Cell Signaling, rabbit anti-phospho-histone γH2A.X (Ser-139), 1:100; anti-phospho-TP53BP1 (Ser-1778), 1:100) was prepared in PBS with 1% BSA and 0.3% Triton X-100 and incubated overnight at 4° C. Next day, samples were washed with PBS and further incubated with fluorophore-conjugated secondary antibody (1:1,000) for 1 hr in dark. Samples were then washed and incubated with DAPI dye (Life Technologies) (4 μg/ml final concentration) for 30 minutes. Images were collected on the INCell Analyzer 2000 (10× objective) and analyzed with the Developer Toolbox.

[5] = WI-38 cells, 10 μM, (*) = compromised ability to protect cells from H2O2, could be due to stability issue
[6] = asterisks indicate the loss of the ability to protect cells from H2O2 over time
[7] = read-out: Est. ED50, dose response 0.6-20 μM, H2O2-resistance
[8] = score in summary of 38 core set hits
[9] = read-out: Experiment 1, H2A.X-P DNA damage foci staining (no H2O2 stress treatment), at 10 uM
[10] = read-out: Experiment 2, H2A.X-P DNA damage foci staining (no H2O2 stress treatment), at 10 uM
[11] = read-out: Experiment 2, H2A.X-P DNA damage foci staining (under H2O2 stress treatment), at 10 uM
[12] = read-out: Experiment 2, TP53BP1-P DNA damage foci staining (no H2O2 stress treatment), at 10 uM
[13] = read-out: Experiment 2, TP53BP1-P DNA damage foci staining (under H2O2 stress treatment), at 10 uM
[14] = derived from dose response curves, 0.6-20 uM, H2O2-resistance of WI-38 cells
[15] = Exp. 1, WI-38 cells, read-out: Exp. 1, under Cd2Cl2 stress treatment, at 10 uM (fold change)
[16] = Exp. 2, WI-38 cells, read-out: Exp. 2, under Cd2Cl2 stress treatment, at 10 uM (fold change)
[17] = Exp. 1, WI-38 cells, read-out: Exp. 1, under MMS stress treatment, at 10 uM (fold change)
[18] = Exp. 2, WI-38 cells, read-out: Exp. 2, under MMS stress treatment, at 10 uM (fold change)

Row | Structure (SMILES) | H2O2-resistant (WI-38 cells [1]; [5]) | No H2O2 stress treatment, at 10 uM (fold change) (WI-38 cells [1]; WI-38 cells) | Assay 1: H2O2-resistant (WI-38 cells [1]) | H2O2-resistant (WI-38 cells [1]; [6]) | EC50 (WI-38 cells [1]; [7]) | L = PARP inhibition (human PARP1) | L = H2O2-resistance in worms (C. elegans) | N = H2O2-resistance in woms (C. elegans) | Assay 4: H2O2- & Cd-resistant (WI-38 cells [2]) | A = Cadmium resistant (WI-38 cells [2]; [8]) | A = Cadmium resistant (WI-38 cells [2]; summary score) | C = H2O2- & Cd-resistant (WI-38 cells [2]; summary score) | B = MMS resistant (WI-38 cells [3]; [8]) | B = MMS resistant (WI-38 cells [3]; summary score) | D = Triple resistant (WI-38 cells [3]; summary score) | activity at 10 µM [4, 9] | activity at 10 µM [4, 10] | activity at 10 µM [4, 11] | activity at 10 µM [4, 12] | activity at 10 µM [4, 13] | also measured
1 | CNC(=O)/C(C#N)=C/c1c(Oc2ccc(C(C)(C)C)cc2)nc2ccccn2c1=O [Gr-5D] | YES (*) | 1.14 fold change | YES | YES (*) | 18.7 µM | 0 | 0 | 0 | YES | 0 | 1 | 1 | 0 | 1 | 2 | 94.1% | 75% | 112% | 145% | 480% | Assay 2: Cadmium-resistant (WI-38 cells [2]): YES; Assay 3: MMS-resistant (WI-38 cells [3]; YES/NO, * indicates partial): YES; Assay 5: Triple resistant (WI-38 cells [3]; YES/NO): YES; P = Potential DNA-damaging ([4]; human, 24 h): 0; R = Potential DNA damaging ([4]; human, 24 h): 0
2 | COc1ccc(/C=C2\SC(=N)N(c3nccs3)C2=O)cc1 [O21] | YES | 0.92 fold change |  | YES | 18.1 µM | 0 | 0 | 0 |  | 0 | 0 | 0 | 0 | 0 | 0 | 161% | 216% | 127% | 196% | 620% | EC50 (WI-38 cells [1]; [14]): 18.1 µM; fold induction at 10 µM (WI-38 cells [2]; [15]): 0.03; fold induction at 10 µM (WI-38 cells [2]; [16]): 0.04; fold induction at 10 µM (WI-38 cells [3]; [17]): 0.74; fold induction at 10 µM (WI-38 cells [3]; [18]): 0.94; P = Potential DNA-damaging ([4]; human, 24 h): 1; R = Potential DNA damaging ([4]; human, 24 h): 1
3 | Oc1ccccc1-c1noc(-c2ccccc2O)n1 [O27] | YES |  | YES | YES | 12.7 µM | 0 |  |  | YES | 1 | 1 | 1 | 0 | 0 | 0 | 122% | 338% | 26.1% | 241% | 379% | EC50 (WI-38 cells [1]; [14]): 12.7 µM; CdCl2-resistant (WI-38 cells [2]): YES; H2O2- & CdCl2-resistant (WI-38 cells [2]): YES; CdCl2-resistant (WI-38 cells [2]; WI-38 cells, 10 μM): YES; H2O2- & CdCl2-resistant (WI-38 cells [2]; WI-38 cells, 10 μM, both stressors): YES; Assay 2: Cadmium-resistant (WI-38 cells [2]): YES; Assay 5: Triple resistant (WI-38 cells [3]; YES/NO): YES; R = Potential DNA damaging ([4]; negative point, cultured human cells): 1; P = Potential DNA-damaging ([4]; summary score): 1
4 | O=C(NCc1cccnc1)/C(=C/c1ccc(-c2ccc(Cl)cc2)o1)S(=O)(=O)c1ccccc1 [Gr-7C] | YES | 0.87 fold change | YES | YES | 2.59 µM | 0 | 0 | 0 | YES | 0 | 1 | 1 | 0 | 0 | 0 | 132% | 135% | 82.9% | 196% | 369% | EC50 (WI-38 cells [1]; [14]): 14.2 µM; fold induction at 10 µM (WI-38 cells [2]; [15]): 1.31; fold induction at 10 µM (WI-38 cells [2]; [16]): 0.97; Assay 2: Cadmium-resistant (WI-38 cells [2]): YES; fold induction at 10 µM (WI-38 cells [3]; [17]): 1.14; fold induction at 10 µM (WI-38 cells [3]; [18]): 1.39; P = Potential DNA-damaging ([4]; human, 24 h): 0; R = Potential DNA damaging ([4]; human, 24 h): 0
